Results on eight molecules are retold here after ChEMBL document CHEMBL5344412, “Dual degradation mechanism of GPX4 degrader in induction of ferroptosis exerting anti-resistant tumor effect” (Eur J Med Chem, 2023).

The target in data set [1] is T1, Phospholipid hydroperoxide glutathione peroxidase GPX4 (Homo sapiens) (UniProt P36969).
T1 sequence (whole entry): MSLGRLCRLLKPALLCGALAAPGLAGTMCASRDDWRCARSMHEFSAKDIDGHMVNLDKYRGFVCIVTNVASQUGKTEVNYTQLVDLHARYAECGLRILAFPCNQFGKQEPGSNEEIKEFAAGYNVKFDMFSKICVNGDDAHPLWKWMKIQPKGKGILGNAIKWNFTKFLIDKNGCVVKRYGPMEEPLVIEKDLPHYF
Briefly: Induction of GPX4 degradation in human HT-1080 cells at 100 nM incubated for 6 hrs relative to control. The class given is cell-based.

The test system of data set [2] is HT-1080. The data set is described as follows: Antiproliferative activity against human HT-1080 cells assessed as inhibition of cell growth incubated for 24 hrs by MTT assay. The class given is functional, cell-based. Particulars: HT-1080, 24 h. In general terms: Tetrazolium assays rely on reduction of a dye to a coloured formazan, in cell work by metabolically active cells.

The test system of another data set is Calu-1. The data set is described as follows: Antiproliferative activity against human Calu-1 cells assessed as inhibition of cell growth incubated for 24 hrs by MTT assay. The class given is functional, cell-based. Particulars: Calu-1, 24 h.
The test system of a further data set is NCI-H1650. Briefly: Antiproliferative activity against human NCI-H1650 cells assessed as inhibition of cell growth incubated for 24 hrs by MTT assay. The class given is functional, cell-based. The settings on record: NCI-H1650, 24 h.
Data set [3] in a line: Antiproliferative activity against human Gefitinib-resistant H1650 cell assessed as inhibition of cell growth incubated for 24 hrs by MTT assay. The class given is functional, cell-based.
The target of data set [4] is T1, Phospholipid hydroperoxide glutathione peroxidase GPX4 (Homo sapiens). The data set is described as follows: Induction of GPX4 degradation in human HT-1080 cells at 0.1 uM by Western blot analysis. The class given is cell-based. (In general: A western blot detects proteins with antibodies after separation by electrophoresis.)
Data set [5] has the same target. Briefly: Induction of GPX4 degradation in human HT-1080 cells at 0.1 uM incubated for 6 hrs in presence of […] by Western blot analysis. The class given is cell-based.
For data set [6] the target is unchanged. Briefly: Induction of GPX4 degradation in human HT-1080 cells at 0.1 uM incubated for 6 hrs in presence of PYR41 by Western blot analysis. The class given is cell-based.
For data set [7] the target is unchanged. Briefly: Induction of GPX4 degradation in human HT-1080 cells at 0.1 uM incubated for 24 hrs in presence of 20 uM of liproxstatin-1 by Western blot analysis. The class given is cell-based.
The target is the same in data set [8]. Briefly: (§1) Induction of GPX4 degradation in human HT-1080 cells measured for 6 hrs by Western blot analysis. The settings on record: dose 0.3-1000 nM. The class given is cell-based.
Data set [9] has as its target T2, Phospholipid hydroperoxide glutathione peroxidase GPX4 (Homo sapiens, UniProt P36969).
T2 sequence (P36969 whole entry): T1 sequence (whole entry)
The description is as §1. The class given is cell-based.

The target of data set [10] is T1, Phospholipid hydroperoxide glutathione peroxidase GPX4 (Homo sapiens). Briefly: (§2) Induction of GPX4 degradation in human Calu-1 cells measured for 24 hrs by Western blot analysis. The class given is cell-based. Particulars: dose 0.1-10000 nM.
In data set [11] the target is T2, Phospholipid hydroperoxide glutathione peroxidase GPX4. Described as §2. The class given is cell-based.
Data set [12] addresses T1, Phospholipid hydroperoxide glutathione peroxidase GPX4 (Homo sapiens). The data set is described as follows: Induction of GPX4 degradation in human HT-1080 cells at 0.1 uM measured for 1 hr by Western blot analysis. The class given is cell-based.
Data set [13] has the same target. The data set is described as follows: Induction of GPX4 degradation in human HT-1080 cells at 0.1 uM measured for 6 hrs by Western blot analysis. The class given is cell-based.
Data set [14] has the same target. Briefly: Induction of GPX4 degradation in human HT-1080 cells at 0.1 uM measured for 24 hrs by Western blot analysis. The class given is cell-based.
Data set [15] shares this target. Briefly: Induction of GPX4 degradation in human Calu-1 cells at 0.3 uM measured for 4 hrs by Western blot analysis. The class given is cell-based.
Data set [16] shares this target. Briefly: Induction of GPX4 degradation in human Calu-1 cells at 0.3 uM measured for 8 hrs by Western blot analysis. The class given is cell-based.
Data set [17] shares this target. Briefly: (§3) Induction of GPX4 degradation in human NCI-H1650 cells incubated for 24 hrs by Western blot analysis. The class given is cell-based. The settings on record: dose 10-1000 nM.
Data set [18] addresses T2, Phospholipid hydroperoxide glutathione peroxidase GPX4. Described as §3. The class given is cell-based.
Data set [19] has as its target T1, Phospholipid hydroperoxide glutathione peroxidase GPX4 (Homo sapiens). The data set is described as follows: Induction of GPX4 degradation in human NCI-H1650 cells at 0.3 uM incubated for 24 hrs by Western blot analysis. The class given is cell-based.
Data set [20] has the same target. The data set is described as follows: (§4) Induction of GPX4 degradation in human Gefitinib-resistant H1650 cells incubated for 24 hrs by Western blot analysis. The class given is cell-based. The settings on record: Gefitinib-resistant H1650 cell, dose 10-1000 nM.
For data set [21], the target named is T2, Phospholipid hydroperoxide glutathione peroxidase GPX4. The description is as §4. The class given is cell-based, Gefitinib-resistant H1650 cell.
Data set [22] deals with T1, Phospholipid hydroperoxide glutathione peroxidase GPX4 (Homo sapiens). Briefly: Induction of GPX4 degradation in human HT-1080 cells at 0.1 uM pretreated for 2 hrs followed by V5 addition and measured after 6 hrs by Western blot analysis. The class given is cell-based. Particulars: time 8.0 hrs.
For data set [23] the target is unchanged. The data set is described as follows: Induction of GPX4 degradation in human HT-1080 cells at 0.1 uM incubated for 24 hrs in presence of Baf-A1 by Western blot analysis. The class given is cell-based.
The target is the same in data set [24]. Briefly: Induction of GPX4 degradation in human HT-1080 cells at 0.1 uM incubated for 24 hrs in presence of Nec-1 by Western blot analysis. The class given is cell-based.
The target is the same in data set [25]. The data set is described as follows: Induction of GPX4 degradation in human HT-1080 cells at 0.1 uM incubated for 24 hrs in presence of ZVF by Western blot analysis. The class given is cell-based.
Data set [26] relates to HT-1080. The data set is described as follows: Induction of ferroptosis in human HT-1080 cells assessed as increase in cell survival at 0.1 uM incubated for 24 hrs in presence of 0.006 uM of liproxstatin-1 by MTT assay. The class given is functional.
The subject of data set [27] is HT-1080. The data set is described as follows: Induction of ferroptosis in human HT-1080 cells assessed as increase in cell survival at 0.1 uM incubated for 24 hrs in presence of 0.020 uM of liproxstatin-1 by MTT assay. The class given is functional.
Data set [28] relates to HT-1080. Briefly: Induction of ferroptosis in human HT-1080 cells assessed as increase in cell survival at 0.1 uM incubated for 24 hrs in presence of 0.061 uM of liproxstatin-1 by MTT assay. The class given is functional.
For data set [29], the system named is HT-1080. Briefly: Induction of ferroptosis in human HT-1080 cells assessed as increase in cell survival at 0.1 uM incubated for 24 hrs in presence of 0.185 uM of liproxstatin-1 by MTT assay. The class given is functional.
Data set [30] concerns HT-1080. Briefly: Induction of ferroptosis in human HT-1080 cells assessed as increase in cell survival at 0.1 uM incubated for 24 hrs in presence of 0.556 uM of liproxstatin-1 by MTT assay. The class given is functional.
Data set [31] relates to HT-1080. The data set is described as follows: Induction of ferroptosis in human HT-1080 cells assessed as increase in cell survival at 0.1 uM incubated for 24 hrs in presence of 1.670 uM of liproxstatin-1 by MTT assay. The class given is functional.
The subject of data set [32] is HT-1080. Briefly: Induction of ferroptosis in human HT-1080 cells assessed as increase in cell survival at 0.1 uM incubated for 24 hrs in presence of 5 uM of liproxstatin-1 by MTT assay. The class given is functional.
Data set [33] deals with HT-1080. Briefly: Induction of ROS production in human HT-1080 cells assessed as increase in ROS positive cells at 0.1 uM incubated for 4 hrs by C11-BODIPY581/891 staining based flow cytometry analysis. The class given is functional, cell-based. A general note: Flow cytometry measures light scatter and fluorescence of single cells or particles in a stream.
Data set [34] concerns HT-1080. The data set is described as follows: Induction of ROS production in human HT-1080 cells assessed as increase in ROS positive cells at 0.1 uM preincubated with liproxstatin-1 for 2 hrs followed by compound addition and measured after for 7 hrs by C11-BODIPY581/891 staining based flow cytometry analysis. The class given is functional, cell-based.
A short description of data set [35]: Toxicity in Balb/c nude mouse xenografted with human HT-1080 cells assessed as change in body weight at 200 mg/kg, sc measured for 16 days. The class given is organism-based. The settings on record: in vivo, 384 h, time 16 day.

Active and inactive are the calls of the source. The rule behind the calls is not given here.

In turn, `COC(=O)[C@H]1Cc2c([nH]c3ccccc23)[C@H](c2ccc(C(=O)N3CCN(CCCCCCCCCCCCN[C@H](C(=O)N4C[C@H](O)C[C@H]4C(=O)N[C@@H](C)c4ccc(-c5scnc5C)cc4)C(C)(C)C)CC3)cc2)N1C(=O)CCl` came in with an Activity in data set [1] of 60%.

For `COC(=O)[C@H]1Cc2c([nH]c3ccccc23)[C@H](c2ccc(C(=O)N3CCN(CCCCCCCCCCCN[C@H](C(=O)N4C[C@H](O)C[C@H]4C(=O)N[C@@H](C)c4ccc(-c5scnc5C)cc4)C(C)(C)C)CC3)cc2)N1C(=O)CCl`, the Activity in data set [1] stood at 52%.

For `COC(=O)c1ccc([C@H]2c3[nH]c4ccccc4c3C[C@H](C(=O)OC)N2C(=O)CCl)cc1`, the IC50 (commonly the concentration that gives 50% inhibition) with HT-1080 [2] came to 0.13 µM; with Calu-1, 0.05 µM; in the data set with NCI-H1650 it was 7.75 µM; in [3], 5.52 µM. Besides, the outcome in [4] was Active. Moreover, the outcome in data set [5], in data set [6] and in data set [7] was inactive.

Turning to `COC(=O)[C@H]1Cc2c([nH]c3ccccc23)[C@H](c2ccc(C(=O)N3CCN(CCCCCCCN[C@H](C(=O)N4C[C@H](O)C[C@H]4C(=O)N[C@@H](C)c4ccc(-c5scnc5C)cc4)C(C)(C)C)CC3)cc2)N1C(=O)CCl`, the Activity in [1] was found to be 36%.

In turn, `COC(=O)[C@H]1Cc2c([nH]c3ccccc23)[C@H](c2ccc(C(=O)N3CCN(CCCCCCCCCCCCCCN[C@H](C(=O)N4C[C@H](O)C[C@H]4C(=O)N[C@@H](C)c4ccc(-c5scnc5C)cc4)C(C)(C)C)CC3)cc2)N1C(=O)CCl` registered an Activity in [1] of 55%.

Turning to `Cc1onc(C(=O)N2CCN(C(c3ccc(Cl)cc3)c3ccc(Cl)cc3)CC2)c1[N+](=O)[O-]`, in the data set with Calu-1, the IC50 is 0.63 µM.

In [1], `COC(=O)[C@H]1Cc2c([nH]c3ccccc23)[C@H](c2ccc(C(=O)N3CCN(CCCCCCCCCN[C@H](C(=O)N4C[C@H](O)C[C@H]4C(=O)N[C@@H](C)c4ccc(-c5scnc5C)cc4)C(C)(C)C)CC3)cc2)N1C(=O)CCl` registered an Activity of 39%.

`COC(=O)[C@H]1Cc2c([nH]c3ccccc23)[C@H](c2ccc(C(=O)N3CCN(CCCCCCCCCCCCCN[C@H](C(=O)N4C[C@H](O)C[C@H]4C(=O)N[C@@H](C)c4ccc(-c5scnc5C)cc4)C(C)(C)C)CC3)cc2)N1C(=O)CCl`: the Activity in data set [1] was 63%; in data set [8], “Dose-Dependent Effect”; in [10] it was “Dose-Dependent Effect”; in data set [13], 100%; in data set [16] it was 100%; in data set [17], “Dose-Dependent Effect”. Moreover, the Activity in data set [19] was 100%; in data set [20] it was “Dose-Dependent Effect”; with HT-1080 [26], 74.8%; with HT-1080 [27], 82.7%; in the data set on HT-1080 [28], 82.7%; in the data set on HT-1080 [29], 92.5%. Further, the Activity in the data set with HT-1080 [30] is 91.5%; in the data set with HT-1080 [31] it was 88.5%; in the data set with HT-1080 [32], 92.1%; in [35], “Non-Toxic”. Moreover, the EC50 (in general, the concentration at which the effect is half-maximal) in [9] was found to be 0.0233 µM; in data set [11] it was 0.136 µM; in data set [18] it was 0.0427 µM; in data set [21] it was 0.0256 µM. In addition, the outcome (in data set [12]; in data set [14]; in [15]; in [4]; in the data set with HT-1080 [33]; in the data set on HT-1080 [34]) was Active. For the same molecule, the result in data set [7] was Active. Besides, the IC50 in the data set on HT-1080 [2] came to 0.058 µM; in the data set on Calu-1, 0.025 µM; in the data set on NCI-H1650, 2.1 µM; in data set [3] it was 1.56 µM. The result in data set [22], in [5], in data set [6], in data set [23], in data set [24] and in [25] was inactive.
